Measurements from patent US20250295757A1 (priority 2022, published 2025).

System: SARS-CoV-2 (WT and OTS virus) in VeroET cells
Type: cell-based

SMILES	number of infectious virus particles in a TCID50 virus assay
O=c1[nH]cc(F)c(=O)[nH]1 [5-Fluorouracil]	reduces
CC(C)C(=O)OC[C@H]1O[C@@H](n2ccc(NO)nc2=O)[C@H](O)[C@@H]1O [Malnupiravir]	reduces
